In patent US20250332178A1, “METHODS OF TREATING MYCOBACTERIAL INFECTIONS USING TETRACYCLINE COMPOUNDS” (priority 2018, published 2025):
≈ marks a conversion by molar mass, not a printed value. Like-named read-outs stand apart in the source and are kept apart here.

What was measured:
Assay in all cases: MIC (CLSI broth dilution), RGM isolates
Format in all cases: cell-based
M. abscessus complex = settings: Mycobacteroides abscessus
M. chelonae = settings: Mycobacteroides chelonae
M. mucogenium group = settings: 336 h, extended reading, up to/including 14 days, read-out: MIC, CLA Extended

Q: Which MIC (M. abscessus complex; 168 h, isolate 12, Type 6 abscessus, extended reading (7 d), read-out: MIC, CLA Extended) does the source give for CC[C@H]1OC(=O)[C@H](C)[C@@H](O[C@H]2C[C@@](C)(OC)[C@@H](O)[C@H](C)O2)[C@H](C)[C@@H](O[C@@H]2O[C@H](C)C[C@H](N(C)C)[C@H]2O)[C@](C)(OC)C[C@@H](C)C(=O)[C@H](C)[C@@H](O)[C@]1(C)O [clarithromycin] here?
A: The MIC was over 32 µg/mL.

Q: What about the MIC (M. abscessus complex; 240 h, isolate 7, Type 1 abscessus, extended reading (10 d), read-out: MIC, CLA Extended) of the same compound?
A: The MIC was over 32 µg/mL.

Q: What about the MIC (M. abscessus complex; 240 h, isolate 9, Type 1 abscessus, extended reading (10 d), read-out: MIC, CLA Extended) of the same compound?
A: Its MIC is over 32 µg/mL.

Q: And the MIC (M. abscessus complex; 240 h, isolate 11, Type 6 abscessus, extended reading (10 d), read-out: MIC, CLA Extended)?
A: The MIC was over 32 µg/mL.

Q: And the MIC (M. abscessus complex; 240 h, isolate 15, Type 7 abscessus, extended reading (10 d), read-out: MIC, CLA Extended)?
A: The MIC was over 32 µg/mL.

Q: And the MIC (M. abscessus complex; 240 h, isolate 16, Type 7 abscessus, extended reading (10 d), read-out: MIC, CLA Extended)?
A: The MIC was over 32 µg/mL.

Q: What about the MIC (M. abscessus complex; 240 h, isolate 17, Type 8 abscessus, extended reading (10 d), read-out: MIC, CLA Extended) of the same compound?
A: The MIC was over 32 µg/mL.

Q: What about the MIC (M. abscessus complex; 264 h, isolate 8, Type 1 abscessus, extended reading (11 d), read-out: MIC, CLA Extended) of the same compound?
A: The MIC was over 32 µg/mL.

Q: And the MIC (M. abscessus complex; 264 h, isolate 10, Type 1 abscessus, extended reading (11 d), read-out: MIC, CLA Extended)?
A: The MIC was 32 µg/mL (≈ 42.8 µM).

Q: And the MIC (M. abscessus complex; 264 h, isolate 13, Type 6 abscessus, extended reading (11 d), read-out: MIC, CLA Extended)?
A: Its MIC is over 32 µg/mL.

Q: And the MIC (M. abscessus complex; 336 h, isolate 1, MAB30, extended reading, up to/including 14 days, read-out: MIC, CLA Extended)?
A: Its MIC is 1 µg/mL (≈ 1.34 µM).

Q: And the MIC (M. abscessus complex; 336 h, isolate 2, MAB30, extended reading, up to/including 14 days, read-out: MIC, CLA Extended)?
A: The MIC was 2 µg/mL (≈ 2.67 µM).

Q: And the MIC (M. abscessus complex; 336 h, isolate 3, MAB30, extended reading, up to/including 14 days, read-out: MIC, CLA Extended)?
A: The MIC was 2 µg/mL (≈ 2.67 µM).

Q: What about the MIC (M. abscessus complex; 336 h, isolate 4, massiliense, extended reading, up to/including 14 days, read-out: MIC, CLA Extended) of the same compound?
A: The MIC was 2 µg/mL (≈ 2.67 µM).

Q: And the MIC (M. abscessus complex; 336 h, isolate 5, massiliense/subsp. abs hybrid, extended reading, up to/including 14 days, read-out: MIC, CLA Extended)?
A: Its MIC is at most 0.06 µg/mL.

Q: And the MIC (M. abscessus complex; 336 h, isolate 14, Type 6 abscessus, extended reading (14 d), read-out: MIC, CLA Extended)?
A: Its MIC is over 32 µg/mL.

Q: And the MIC (M. abscessus complex; isolate 1, MAB30, initial reading, generally 3-4 days, read-out: MIC, CLA Initial)?
A: The MIC was at most 0.06 µg/mL.

Q: And the MIC (M. abscessus complex; isolate 2, MAB30, initial reading, generally 3-4 days, read-out: MIC, CLA Initial)?
A: The MIC was at most 0.06 µg/mL.

Q: And the MIC (M. abscessus complex; isolate 3, MAB30, initial reading, generally 3-4 days, read-out: MIC, CLA Initial)?
A: Its MIC is 0.5 µg/mL (≈ 0.668 µM).

Q: And the MIC (M. abscessus complex; isolate 4, massiliense, initial reading, generally 3-4 days, read-out: MIC, CLA Initial)?
A: Its MIC is 0.12 µg/mL (≈ 0.16 µM).

Q: What about the MIC (M. abscessus complex; isolate 5, massiliense/subsp. abs hybrid, initial reading, generally 3-4 days, read-out: MIC, CLA Initial) of the same compound?
A: The MIC was at most 0.06 µg/mL.

Q: What about the MIC (M. abscessus complex; isolate 6, Type 1 abscessus, initial reading, generally 3-4 days, read-out: MIC, CLA Initial) of the same compound?
A: The MIC was 0.25 µg/mL (≈ 0.334 µM).

Q: And the MIC (M. abscessus complex; isolate 7, Type 1 abscessus, initial reading, generally 3-4 days, read-out: MIC, CLA Initial)?
A: The MIC was 0.12 µg/mL (≈ 0.16 µM).

Q: And the MIC (M. abscessus complex; isolate 8, Type 1 abscessus, initial reading, generally 3-4 days, read-out: MIC, CLA Initial)?
A: Its MIC is 0.12 µg/mL (≈ 0.16 µM).

Q: And the MIC (M. abscessus complex; isolate 9, Type 1 abscessus, initial reading, generally 3-4 days, read-out: MIC, CLA Initial)?
A: Its MIC is 2 µg/mL (≈ 2.67 µM).

Q: What about the MIC (M. abscessus complex; isolate 10, Type 1 abscessus, initial reading, generally 3-4 days, read-out: MIC, CLA Initial) of the same compound?
A: Its MIC is 0.25 µg/mL (≈ 0.334 µM).

Q: And the MIC (M. abscessus complex; isolate 11, Type 6 abscessus, initial reading, generally 3-4 days, read-out: MIC, CLA Initial)?
A: Its MIC is 0.12 µg/mL (≈ 0.16 µM).

Q: What about the MIC (M. abscessus complex; isolate 12, Type 6 abscessus, initial reading, generally 3-4 days, read-out: MIC, CLA Initial) of the same compound?
A: Its MIC is 0.25 µg/mL (≈ 0.334 µM).

Q: And the MIC (M. abscessus complex; isolate 13, Type 6 abscessus, initial reading, generally 3-4 days, read-out: MIC, CLA Initial)?
A: Its MIC is 0.25 µg/mL (≈ 0.334 µM).

Q: What about the MIC (M. abscessus complex; isolate 14, Type 6 abscessus, initial reading, generally 3-4 days, read-out: MIC, CLA Initial) of the same compound?
A: Its MIC is at most 0.06 µg/mL.

Q: And the MIC (M. abscessus complex; isolate 15, Type 7 abscessus, initial reading, generally 3-4 days, read-out: MIC, CLA Initial)?
A: Its MIC is 0.5 µg/mL (≈ 0.668 µM).

Q: What about the MIC (M. abscessus complex; isolate 16, Type 7 abscessus, initial reading, generally 3-4 days, read-out: MIC, CLA Initial) of the same compound?
A: Its MIC is at most 0.06 µg/mL.

Q: What about the MIC (M. abscessus complex; isolate 17, Type 8 abscessus, initial reading, generally 3-4 days, read-out: MIC, CLA Initial) of the same compound?
A: Its MIC is 0.25 µg/mL (≈ 0.334 µM).

Q: And the MIC (M. chelonae; 336 h, isolate 18, M. chelonae, extended reading, up to/including 14 days, read-out: MIC, CLA Extended)?
A: Its MIC is 2 µg/mL (≈ 2.67 µM).

Q: And the MIC (M. chelonae; 336 h, isolate 19, M. chelonae, extended reading, up to/including 14 days, read-out: MIC, CLA Extended)?
A: The MIC was 0.5 µg/mL (≈ 0.668 µM).

Q: What about the MIC (M. chelonae; 336 h, isolate 20, M. chelonae, extended reading, up to/including 14 days, read-out: MIC, CLA Extended) of the same compound?
A: Its MIC is 0.5 µg/mL (≈ 0.668 µM).

Q: And the MIC (M. chelonae; 336 h, isolate 21, M. chelonae, extended reading, up to/including 14 days, read-out: MIC, CLA Extended)?
A: Its MIC is 2 µg/mL (≈ 2.67 µM).

Q: And the MIC (M. chelonae; 336 h, isolate 22, M. chelonae, extended reading, up to/including 14 days, read-out: MIC, CLA Extended)?
A: Its MIC is 2 µg/mL (≈ 2.67 µM).

Q: What about the MIC (M. chelonae; isolate 18, M. chelonae, initial reading, generally 3-4 days, read-out: MIC, CLA Initial) of the same compound?
A: The MIC was 0.25 µg/mL (≈ 0.334 µM).

Q: And the MIC (M. chelonae; isolate 19, M. chelonae, initial reading, generally 3-4 days, read-out: MIC, CLA Initial)?
A: The MIC was 0.25 µg/mL (≈ 0.334 µM).

Q: And the MIC (M. chelonae; isolate 20, M. chelonae, initial reading, generally 3-4 days, read-out: MIC, CLA Initial)?
A: The MIC was 0.5 µg/mL (≈ 0.668 µM).

Q: What about the MIC (M. chelonae; isolate 21, M. chelonae, initial reading, generally 3-4 days, read-out: MIC, CLA Initial) of the same compound?
A: Its MIC is 0.5 µg/mL (≈ 0.668 µM).

Q: And the MIC (M. chelonae; isolate 22, M. chelonae, initial reading, generally 3-4 days, read-out: MIC, CLA Initial)?
A: The MIC was 1 µg/mL (≈ 1.34 µM).

Q: What about the MIC (M. mucogenium group; isolate 39, M. mucogenicum) of the same compound?
A: The MIC was 0.12 µg/mL (≈ 0.16 µM).

Q: And the MIC (M. mucogenium group; isolate 40, M. mucogenicum)?
A: Its MIC is 1 µg/mL (≈ 1.34 µM).

Q: And the MIC (M. mucogenium group; isolate 41, M. mucogenicum)?
A: The MIC was 1 µg/mL (≈ 1.34 µM).

Q: And the MIC (M. mucogenium group; isolate 42, M. mucogenicum)?
A: Its MIC is 0.12 µg/mL (≈ 0.16 µM).

Q: And the MIC (M. mucogenium group; isolate 43, M. phocaicum)?
A: The MIC was 1 µg/mL (≈ 1.34 µM).

Q: What about the MIC (M. mucogenium group; isolate 44, M. phocaicum) of the same compound?
A: The MIC was 1 µg/mL (≈ 1.34 µM).

Q: And the MIC (M. mucogenium group; isolate 45, M. phocaicum)?
A: Its MIC is 1 µg/mL (≈ 1.34 µM).

Q: And the MIC (M. mucogenium group; isolate 46, M. phocaicum)?
A: Its MIC is 0.12 µg/mL (≈ 0.16 µM).
